The values below are quoted from earlier work in paper PMC7414093 (Proceedings of the National Academy of Sciences of the …, 2020).

Numbered stars: 1 amine (or outer) side, 2 acyl side, 3 side chain; on linkers, the order of the positions; unused ones are H or OH. Bridge positions count the residues as written; N and C are the ends. Square brackets hold non-standard residues; d marks the D form. Peptide text beside a SMILES is read from it. Phe(3,4-Cl2) = N[C@@H](Cc1ccc(Cl)c(Cl)c1)C(=O)O; X1 = NCCC(=O)N[C@@H](CN[*:2])C(=O)[*:1]; hhPhe = N[C@@H](CCCc1ccccc1)C(=O)O; NMeL = CN[C@@H](CC(C)C)C(=O)O; Orn = NCCC[C@H](N)C(=O)O

This data set has as its system HA. Also on record: method as in PMID 28971971. Particulars: AlphaLISA, HB80.4 as competitor for HA binding; cited from earlier work.

As for `CC(=O)N[C@@H](CCCc1ccccc1)C(=O)N[C@H]1CCCNC(=O)[C@@H](NC(=O)CCN)CNC(=O)[C@H](CO)NC(=O)[C@H](CC(C)C)NC(=O)[C@H](Cc2c[nH]c3ccccc23)NC(=O)[C@H](CCC(=O)O)NC(=O)[C@H](Cc2ccc(Cl)c(Cl)c2)NC(=O)[C@H](Cc2ccc(O)cc2)NC(=O)[C@H](CCC(=O)O)NC(=O)[C@H](CC(C)C)N(C)C1=O` [P7] (Ac-[hhPhe][Orn][NMeL]EY[Phe(3,4-Cl2)]EWLS; linker 2-C via X1), the EC50 was 30 to 70 nM.

What is called EC50 is the concentration at which the effect is half-maximal.
